Measurements as given in patent US20240050574A1, “IONIZABLE LIPIDS” (eTheRNA immunotherapies NV, priority 2020, published 2024).

Legend:
[1] = LNP size and polydispersity index by Dynamic Light Scattering (Malvern Zetasizer); type: physicochemical; conditions: N/P 10
Protocol: (§1) Lipid based nanoparticles are produced by microfluidic mixing of an mRNA solution in sodium acetate buffer (100 mM, pH4) and lipid solution in a 2:1 volume ratio at a speed of 9 mL/min using the NanoAssemblr Benchtop (Precision Nanosystems). The lipid solution contained a mixture of the ionizable lipid of interest, DSPC, DOPC or DOPE (Avanti), Cholesterol (Sigma) and DMG-PEG2000 (Sunbright GM-020, NOF corporation. The 4 lipids were mixed at 6 different molar ratios. LNPs were dialyzed against TBS (10000 times more TBS volume than LNP volume) using slide-a-lyzer dialysis cassettes (20K MWCO, 3 mL, ThermoFisher). Size, polydispersity and zeta potential were measured with a Zetasizer Nano (Malvern). mRNA encapsulation was measured by standard Ribogreen RNA assay (Invitrogen).
Size and Poly Dispersity Index were assessed by Dynamic Light Scattering (DLS) on a Malvern Zetasizer. MC-3 is the ionizable lipid used in Onpattro and is considered the state-of-the art.
(§2) LNP formulations were prepared using a modified procedure of a method previously described for siRNA LNP synthesis. All formulations were prepared in a sterile manner with a N/P ratio of 10. All lipid components were dissolved in ethanol at molar ratios of 50:10:38.5:1.5 mol % (ionizable lipid/DSPC/Cholesterol/DMG-PEG2000). DSPC, Cholesterol and DMG-PEG2000 were purchased from Avanti Polar Lipids (Alabaster, Alabama, USA), while the Ionizable lipids are synthesized in-house. The final lipid concentration in ethanol was fixed at 10 mg/mL. E7 mRNA was dissolved in 100 mM acetate buffer (Sigma Aldrich, Saint-Louis, Missouri, USA) pH 4. The ethanol and aqueous phase were combined using a microfluidic mixer (NanoAssemblr® BenchTop (Precision Nanosystems, Vancouver, BC) in a 2:1 (aqueous:ethanol) ratio. Formulations were dialysed afterwards against 1× Sterile TBS pH 7.4 (Sigma Aldrich, Saint-Louis, Missouri, USA) using Slide-A-Lyzer® dialysis cassettes with a MWCO of 20.000 Da (Thermo Scientific, Massachusetts, USA) for 18 hours. Afterwards, the purified formulations were concentrated using Amicon ultra centrifugal filters (EMD Millipore, Massachusetts, USA). Finally, the exact concentration and E.E. % was determined through a Ribogreen Assay prior to final dilution with TBS (100 μg/mL E7 mRNA per formulation. All formulations were characterized for size and PDI using Dynamic Light Scattering Zetasizer Nano-ZS (Malvern Pananlytical Ltd., Malvern, UK) and stored afterwards at 4° C. The physico-chemical characteristics of each formulation can be found in Table 5.

E7-specific CD8 T cells = assay: E7-specific CD8 T cell response after intramuscular E7 mRNA LNP vaccination (Example 5); type: in vivo, mice; conditions: Example 5, FIG. 13, in vitro stimulation with E7-derived peptide, vs MC-3
[2] = mRNA encapsulation efficiency by Ribogreen RNA assay; type: physicochemical; conditions: for E.E. (encapsulation efficiency): N/P 10
Protocol: as §1, with “(Invitrogen). […]” for “(Invitrogen).”
as §2

[3] = LNP size and polydispersity index by Dynamic Light Scattering (Malvern Zetasizer); type: physicochemical
B16F10 tumors = assay: Fluc mRNA expression in tumor after intratumoral LNP injection, in vivo bioluminescence; design: species or system C57/BL6 mice; conditions: B16F10 tumors (Example 2.5); intratumoral 10 μg mRNA; 6 hours and 24 hours post injection; vs MC-3 based benchmark LNP
Protocol: (§3) In case of CT26 tumor inoculation we used Balb/c mice. For B16F10 tumor inoculation C57/BL6 mice were used. To prepare for subcutaneous tumor inoculation, mice were anesthetized using 2.5% isoflurane and the injection site was shaved. The injection site is typically on the posterior/lateral aspect of the lower left flank. For inoculation purposes, cells need to be approximately 1 week in culture and between passage 3 and 5 after thawing. Cold tumor cell solution was injected subcutaneously at a dose of 0.5*10e6 cells/50 μl PBS. Tumor growth was measured every 2-3 days using the Caliper device. The following formula was used to calculate tumor size: (tumor width*tumor width*tumor length)/2. […] After injections, mice were always monitored for 5-10 minutes until fully awake without showing any sings of pain distress or complications.
(§4) Fluc mRNA expression in tumor and liver was assessed at 6 an 24 hours post injection. By injecting mice peritoneally with D-luciferin (Promega), bioluminescence can be measured through in vivo imaging (IVIS Spectrum System). […] The Living Image Software (PerkinElmer) was used to specify tumor and liver ‘region of interests (ROIs) after which the average radiance (p/s/cm^2/sr) was calculated within these ROIs. […]

[4] = Body weight after intratumoral LNP administration (B16F10 model); type: in vivo, C57/BL6 mice; conditions: B16F10 model (Example 2.5); after intratumoral administration of 10 μg mRNA LNP
liver [5] = assay: Fluc mRNA off-target expression in liver after intratumoral LNP injection of CT26 tumors; type: in vivo, Balb/c mice; conditions: intratumoral 10 μg mRNA, 6 hours and 24 hours post injection, vs MC-3 based benchmark LNP
Protocol: as §3, §4

liver [6] = assay: Fluc mRNA off-target expression in liver after intratumoral LNP injection of B16F10 tumors; type: in vivo, C57/BL6 mice; conditions: B16F10 tumors (Example 2.5); intratumoral 10 μg mRNA; 6 hours and 24 hours post injection; vs MC-3 based benchmark LNP
Protocol: as §3, §4

[7] = Body weight after intratumoral LNP administration (CT26 model); type: in vivo, Balb/c mice; conditions: after intratumoral administration of 10 μg mRNA LNP
Protocol: Fluc mRNA expression in tumor and liver was assessed at 6 an 24 hours post injection. By injecting mice peritoneally with D-luciferin (Promega), bioluminescence can be measured through in vivo imaging (IVIS Spectrum System). Bioluminescence is generated through an oxidation reaction which occurs between the enzyme luciferase derived from the firefly mRNA encapsulated in the LNP and its substrate D-luciferin. The Living Image Software (PerkinElmer) was used to specify tumor and liver ‘region of interests (ROIs) after which the average radiance (p/s/cm^2/sr) was calculated within these ROIs. To monitor tolerability of different LNP types used, bodyweight at 6 and 24 hours post injection was compared to baseline bodyweight at day of randomization.
Balb/c mice were subcutaneously inoculated with CT26 tumor cells. When tumors reached a mean volume of 50-100 mm^3, tumors were injected with the respective mRNA LNPs (10 μg mRNA; 20 μl volume; TBS buffer) or with control buffer.

[8] = Table 7, Ratio 1: 50/10/38.5/1.5 mol % ionizable lipid/DSPC (SS-EC: DOPE)/Chol/DMG-PEG2000
[9] = Table 6 (Example 4, HA mRNA), ionizable lipid/DSPC/Chol/DMG-PEG2000 50/10/38.5/1.5 mol %
[10] = Table 7, Ratio 2: 56.71/14.43/27.58/1.28 mol % ionizable lipid/DSPC/Chol/DMG-PEG2000
[11] = Table 6 (Example 4, HA mRNA), ionizable lipid/DSPC/Chol/DMG-PEG2000 50/10/38.5/1.5 mol %, N/P 10
[12] = Table 7, Ratio 2: 56.71/14.43/27.58/1.28 mol % ionizable lipid/DSPC/Chol/DMG-PEG2000, N/P 10
[13] = Table 5, ionizable lipid/DSPC/Chol/DMG-PEG2000 50/10/38.5/1.5 mol %, E7 mRNA
[14] = Table 3, LNP ionizable lipid/phospholipid/cholesterol/DMG-PEG2000 about 50/10/38.5/1.5, DOPE, except MC-3 with DSPC, eGFP mRNA

PDI [1, 8]	size [1, 8] [nm]	E.E. (encapsulation efficiency) [2, 9] [%]	E.E. (encapsulation efficiency) [2, 8] [%]	E.E. (encapsulation efficiency) [2, 10] [%]	PDI [3, 11]	size [3, 11] [nm]	PDI [3, 12]	size [3, 12] [nm]	SMILES	further results
0.095	90	97	97	95	0.083	105.1	0.081	88	CCCCCCCCC(CCCCCC)C(=O)OCCN(CCOC(=O)C(CCCCCC)CCCCCCCC)C(=O)OCCSSCCOC(=O)NCCN1CCCCCC1 (stereo not drawn) [S-Ac7-DHDa]	T cell responses (IFNg+, IFNg+ TNFa+, IFNg+ Granzyme b+, IFNg+ CD107+ CD8 T cells in spleen) (E7-specific CD8 T cells): superior T cell responses compared to MC-3
0.094	109	98	97	96	0.077	93.62	0.106	97	CCCCCCCC/C=C\CCCCCCCC(=O)OCC(CNC(=O)OCCSSCCOC(=O)NCCN1CCCCCC1)OC(=O)CCCCCCC/C=C\CCCCCCCC (stereo not drawn) [S-Ac7-DOg]	PDI [1, 13]: 0.062; size [1, 13]: 97.51 nm; Fluc expression levels in the tumor (in vivo bioluminescence) (B16F10 tumors): increased Fluc expression levels in the tumor compared to the MC-3 based benchmark LNP; body weight [4]: No weight loss; % encap [2, 14]: 90%; E.E. (encapsulation efficiency) [2, 13]: 96%; off-target Fluc expression in the liver (liver [5]): strongly reduced off-target expression in the liver; off-target Fluc expression in the liver (liver [6]): strongly reduced off-target expression in the liver; body weight [7]: No weight loss; PDI [3, 14]: 0.21; size ([3]; Table 3, LNP ionizable lipid/phospholipid/cholesterol/DMG-PEG2000 about 50/10/38.5/1.5, DOPE, except MC-3 with DSPC, eGFP mRNA, in nm (unit assumed)): 87.46
